Patent US20250333530A1 (Hoffmann-La Roche Inc., priority 2024, published 2025)
Entries after “also recorded” stand apart in the source; their conditions may differ.

Experiments:
[1] = system: OCI-Ly18 tumor; test: Dexamethasone scheduling with glofitamab, gemcitabine and oxaliplatin: tumor growth; type: in vivo, humanized BRGS-CD47 mice
Experimental: Human OCI-Ly18 (Diffuse Large B-Cell Lymphoma; DLBCL) cells were originally obtained from ATCC and subsequently expanded and deposited in the Roche Glycart internal cell bank. Cells were cultured in RPMI medium containing 10% fetal calf serum (FCS) and 1× GLUTAMAX®. The cells were maintained at 37° C. in a water-saturated atmosphere with 5% CO2. A 50 μL cell suspension (5×10^6 OCI-Ly18 cells) mixed with 50 μL Matrigel was injected subcutaneously into the flank of anesthetized mice using a 22G to 30G needle. […] Health monitoring was performed regularly. At the appropriate time, mice were injected subcutaneously with tumor cells as described and treated with the compounds or histidine buffer (Vehicle; Group A) when tumor size reached approximately 200 mm^3 (Day 7). […] Gemcitabine and oxaliplatin were injected intraperitoneally (i.p.), glofitamab intravenously (i.v.), and dexamethasone was administered via oral gavage. Groups A-D received no dexamethasone: • Group A: vehicle (control group). • Group B: glofitamab monotherapy • Group C: gemcitabine and oxaliplatin. • Group D: glofitamab, gemcitabine and oxaliplatin. […] [table] All mice were injected with the appropriate solutions. […] Subsequent combination treatments were carried out concomitantly. To obtain the proper amount of compounds per injection volume, the stock solutions (Table 20) were diluted with histidine buffer when necessary. Tumor growth was measured three times weekly using a caliper and tumor volume was calculated as followed: The study was terminated at day 60 after a total of 7 cycles of treatment.

[2] = in vivo
[3] = system: serum cytokines; test: Dexamethasone scheduling with glofitamab: serum cytokines by multiplex assay; type: in vivo, humanized BRGS-CD47 mice; conditions: for Serum cytokine levels 4 hours after the first glofitamab injection: glofitamab 0.15 mg/kg i.v., dexamethasone co-administered in Groups C-G (2-6 mg/kg orally)
Experimental: Group B animals (n=14) were injected intravenously with glofitamab only (0.15 mg/kg at first and 0.5 mg/kg at subsequent injections in 200 μL of histidine buffer) once weekly for 5 weeks.
Serum was prepared by centrifugation.
Serum was collected and stored at −20° C. Serum samples were diluted 1:10 and used for the analysis of different cytokines/chemokines using the Bio-Plex Pro™ Human Chemokine Panel, 40-Plex system (Catalog No. 171AK99MR2; Bio-Rad; Hercules, CA), following the manufacturer's instructions.

[4] = system: serum cytokines; conditions: day 10
Experimental: Cytokine measurement was carried out with the Luminex™ FLEXMAP 3D™ system using Bio-Plex Pro Human Cytokine Assay according to the manufacturer's instruction.

Row | Molecule | Tumor growth (tumor volume) up to day 60 ([1]; 7 weekly cycles, glofitamab 0.15/0.5 mg/kg i.v., gemcitabine/oxaliplatin 50/3 mg/kg i.p., no dexamethasone (Groups B-D)) | Pharmacokinetics on co-administration with gemcitabine or oxaliplatin [2] | Serum cytokine levels after the second glofitamab injection ([3]; 0.5 mg/kg, much lower than after the first cycle) | Serum cytokine levels 4 hours after the first glofitamab injection [3] | Serum cytokine levels 28 hours after the first glofitamab injection ([3]; glofitamab monotherapy (Group B)) | Anti-tumor effect of glofitamab + gemcitabine + oxaliplatin with added dexamethasone ([1]; dexamethasone 4 mg/kg p.o., Groups E-H, correlated with frequency of dexamethasone administration) | Anti-tumor effect vs CD20-TCB and chemotherapy without dexamethasone ([1]; dexamethasone 4 mg/kg p.o., Groups G and H (most frequent injections), study termination) | Serum IFN-γ and IL-2 ([4]; Groups F and H) | Serum MCP-1 and IL-8 ([4]; Groups F and H) | CRS-related serum cytokines, such as IL-6, vs glofitamab monotherapy group ([4]; additional dexamethasone injection 24 hours post glofitamab (Groups F and H)) | Serum cytokine levels 28 hours after the first glofitamab injection vs glofitamab only ([3]; 1 or 2 dexamethasone doses prior to glofitamab only (Groups C and E)) | IL-6 and IL-10 levels with additional dexamethasone premedication dose ([3]; 24-hour pre-glofitamab administration) | IL-6 with dexamethasone post treatment dose ([3]; 24 hours post-glofitamab administration, 28 hours post-glofitamab time point) | Levels of some cytokines (e.g., GM-CSF), second dexamethasone dose prior to glofitamab vs only 1 dose ([3]; Groups D-G, 4 hours after first glofitamab injection) | Serum cytokine levels 28 hours after the first glofitamab injection ([3]; dexamethasone prior to and after glofitamab injection (Groups D and F), mainly IL-6, MIP1β, MIP1α, TNFα reduced)
1 | glofitamab: anti-CD20/anti-CD3 bispecific antibody, 2:1 configuration; CAS 2229047-91-8 | initially elicited a robust inhibition of tumor growth, which was subsequently followed by tumor recurrence in all treated mice | not affected | did not show an increase in cytokine levels | strong cytokine release | higher cytokine levels | – | – | – | – | – | – | – | – | – | –
2 | C[C@@H]1C[C@H]2[C@@H]3CCC4=CC(=O)C=C[C@]4(C)[C@@]3(F)[C@@H](O)C[C@]2(C)[C@@]1(O)C(=O)COP(=O)(O)O [dexamethasone, Dexamethasone sodium phosphate] | – | – | – | significantly reduced cytokine levels | – | improvement in anti-tumor effects | statistically significant better anti-tumor effects | did not show as strong a reduction | statistically reduced | significant reduction | No difference in cytokine levels | reduced IL-6, and to some extent IL-10 levels, at the early time point, with no mitigation capacity at the later time point | mitigated IL-6 at the later time point | further reduced the levels of some cytokines | effectively mitigated cytokine levels for an extended duration; also recorded: very low cytokine levels
